# Data reported in a melting point compilation (Tetko et al.; mined from patent text by program, amines drawn as free bases though some values may be those of a salt).
row,Structure (SMILES),melting point
1,CC(=O)NC[C@H]1CN(c2ccc(C3=CCN(c4nnc(C)s4)CC3)c(F)c2)C(=O)O1,193 to 195 °C
2,Cc1noc(C)c1S(=O)(=O)n1c(Br)nc(Br)c1Br,165 to 170 °C
3,CCCNC(=O)Nc1c(C(=O)OCC)cnn1-c1ccccc1,117 to 118 °C
4,CCOc1cc(C)ccc1C1CCN(CCCCNC(=O)c2ccc(NC(=O)c3ccc(Cl)cc3)cc2)CC1,254 °C
5,CC(=O)N(Cc1ccc(C(=O)O)cc1)c1ccc2c(c1)C(C)(C)CCC2(C)C,219 to 223 °C
6,O=C(O)Cc1ccn2c(=O)c(C(=O)O)ccc2c1,> 250 °C
7,CCOC(=O)COc1ccc([N+](=O)[O-])c(C=C2NC(=O)NC2=O)c1,268 to 270 °C
8,CC(C)(C)c1cccc(S(=O)(=O)n2c(C(O)c3ccc(C(=O)O)cc3)cc3cc(C(F)(F)F)ccc32)c1 (racemic),110 °C
9,Cc1c(C(C)O)ssc1=S (stereo unspecified),79 to 80 °C
10,COC(=O)c1cccc2cc(C)sc12,48 to 49 °C
11,CC(C)(C)OC(=O)NCCCCCNC1(c2ccccc2Cl)C(=O)Nc2ccc(Cl)cc21 (stereo unspecified),185 °C
12,CC1C(=CC2C(C(=O)O)C2(C)C)C1(F)F (stereo unspecified),97.7 °C
13,COC(=O)CCc1cnoc1-c1ccc(Cl)c(Br)c1,54 to 55 °C
14,CCOC(=O)C(=O)Nc1ccc(Cl)cc1C(F)(F)F,55 to 58 °C
15,Cc1nc2cccc(C)c2c(=O)[nH]1,255 to 257 °C
16,C[C@H](NC(=O)c1c[nH]c2ncc(-c3nn(C)c4cc(Cl)ccc34)nc12)C(C)(C)C#N,322 to 328 °C
17,CCOC(=O)c1cc(=O)c2ccc(C)cc2o1,62 to 64 °C
18,C=CCC1(C)OC(=O)Nc2ccc(-c3cccc(Cl)c3)cc21 (stereo unspecified),128 to 129 °C
19,CCOC(=O)c1cnn2c1nc(N(CC)CC)c1cnc3c(cnn3CC)c12,170 to 172 °C
20,Nc1ccc(/C=C/C(=O)CC(=O)/C=C/c2ccc(O)cc2)cc1,212 to 217 °C
21,Cc1ccc(S(=O)(=O)OC2CCN(S(=O)(=O)c3ccc(C)cc3)CC2)cc1,137 to 140 °C
22,Nc1nc(C(F)(F)F)cc(C(F)(F)F)n1,94.5 to 96 °C
23,CN(Cc1ccc(NC(=O)C2=Cc3cc(-c4ccc5c(c4)OCO5)ccc3SCC2)cc1)C1CCOCC1,193 to 194 °C
24,O=CNNc1cccc([N+](=O)[O-])c1,168 to 169 °C
25,O=C(O)c1sc(-c2ccc(C(F)(F)F)cc2)nc1C(F)(F)F,177 to 179 °C

# Other lines, results leading:
row,melting point,Structure (SMILES)
1,143 to 145 °C,CCOCc1nc2c(N)nc(C)c(C)c2n1CCOCc1ccncc1
2,206 to 207 °C,CC(C)(C)Sc1c(CC(C)(C)C(=O)O)n(Cc2ccc(Cl)cc2)c2ccc(Oc3ccccn3)cc12
3,182 to 184 °C,CCCCc1ncc(/C=C(\Cc2cccs2)C(N)=O)n1Cc1ccccc1Cl
4,219 to 221 °C,Cn1c2ccccc2c2nc3cccc(C=O)c3nc21
5,172 to 174 °C,Cc1nc2c(-c3cccc(N4CCN(CCO)CC4)c3)cnn2c(N)c1-c1ccc(F)c(F)c1
6,180 to 183 °C,COc1ccc(Cl)cc1C(=O)NCCc1ccc(C(C)=CCC(=O)O)cc1
7,120 to 125 °C,NC(=O)OCCn1nccc1-c1ccc(Oc2ccc(F)cc2)cc1
8,195 °C,COc1ccc(N2CCN(c3ccc([N+](=O)[O-])cc3)CC2)cc1
9,86 to 87 °C,O=C1c2ccccc2CN1CCSc1ccncc1
10,70.4 to 101 °C,NC(=O)N1c2ccccc2CC(O)c2ccccc21 (stereo unspecified)
11,> 260 °C,COc1ccc(Cn2c(O)nc3c(N)nc4ccccc4c32)cc1
12,87 to 89 °C,CC(C#N)(CCc1ccccc1C(F)(F)F)NC(=O)c1ccc(OC(F)(F)F)cc1 (stereo unspecified)
13,130 °C,CCOc1ccc(F)cc1C(=O)c1sc2ncccc2c1N
14,102 to 104 °C,NCC1=CC(c2ccccc2)Cc2c(O)cccc21 (stereo unspecified)
15,172 to 174 °C,C[C@]12CCC(=O)N[C@@H]1CCc1cc(SCc3ccccc3)ccc12
16,48 to 51 °C,CC(=O)OCCN(C)CC#CC1=Cc2ccccc2Sc2ccc(Cl)cc21
